System: NCI-H358 cell line
Assay: TGFβ treatment of NCI-H358, western blot phenotype
Format: cell-based
Procedure: FIG. 4A depicts a western blot analysis of the non-small cell lung cancer cell line NCI-H358 for protein levels of E-cadherin, vimentin, PC ([…]), GLS (phosphate activated glutaminase), and actin (control).
In order to better understand the contribution of mesenchymal versus epithelial phenotype to GLS dependence, the NCI-H358 cell line was treated with TGFβ and the phenotype assayed.

How did the “phenotype after TGFβ treatment” value (E-cadherin/vimentin expression) turn out when “TGFβ: TGFβ used to induce EMT in the NCI-H358 cell line” was run?
Its value is “shift to a mesenchymal phenotype”.

And the “increase in GAC protein levels in the mesenchymal variant” value (TGFβ induced EMT)?
Its value is 2 fold.

From patent US10101331B2, “Methods of evaluating patients using E-cadherin or vimentin” (AGIOS PHARMACEUTICALS, INC, priority 2012, dated 2018)
